We go through 31 molecules from patent US20260125356A1, “TREATMENT OF LEISHMANIASIS” (THE UNIVERSITY OF DURHAM, priority 2022, published 2026).

In assay [1] the test system is L. major promastigotes. In words: L. major promastigote dose response assay (alamarBlue/resazurin). The assay is classed as cell-based. The settings on record: for EC50: 44 hrs + 4 hrs alamarBlue/resazurin, 26° C. How it is done: Using a standard alamarBlue™ assay, activity and selectivity were assessed using L. major promastigotes and HepG2 cells, respectively.
All parasite and human cell cultures were grown and manipulated following biosafety level 2 instructions under sterile conditions. L. major FV1, L. amazonensis (MHOM/Br/75/JOSEFA), L. donovani BOB (derived from MHOM/SD/62/1S-CL2D), T. brucei (90-13, 427 strain) and T. cruzi (Dm28c) were used throughout.
All steps were carried out under sterile conditions. Frozen stocks of the relevant Leishmania promastigote species were thawed rapidly and added to Schneider's media. Promastigotes were grown at 26° C. in Nunc EasYFlask 25 cm^2 Nunclon Delta Surface (ThermoScientific) and frozen stocks were prepared on low passage cultures (p2-4) by pelleting the cells by centrifugation and resuspending in Schneider's media with 10% DMSO. The cultures were aliquoted into cryovials (Starlab) and cooled slowly to −150° C. for long term storage.
All steps were carried out under sterile conditions. […] Cycloheximide or amphotericin B were used as positive controls and 2% DMSO was used as a negative control. alamarBlue® (ThermoFisher scientific) or resazurin solution was added to each well and incubated for a further 4 hrs at 26° C. Cell-viability was determined using a BioTek™ FLx800 microplate reader with Gen5® 1.08 data analysis software (BioTek) by monitoring fluorescence emission (λex 560/λem 590 nm). Dose response curves were fitted using sigmoidal regression analysis (GraphPad Prism 8 software) and used to calculate EC50 values.

For assay [2], the system named is L. amazonensis promastigotes. As to the kind of experiment: L. amazonensis promastigote dose response assay (alamarBlue/resazurin). The assay is classed as cell-based. The conditions noted are these: 44 hrs + 4 hrs alamarBlue/resazurin, 26° C., read-out: EC50 (L. amaz)/μM. For orientation: Resazurin is reduced to fluorescent resorufin, in cell work by metabolically active cells.

Where two headings read alike, the source gives them in different places. A value given as a limit tells only on which side of the number the result lay.

For “5′-amino-N-[3-(methylcarbamoyl)thiophen-2′-yl]thiophene-2-carboxamide [Compound 8]”, the EC50 in assay [1] was above 100 µM.
Regarding “5′-bromo-N-[3-(methylcarbamoyl)thiophen-2-yl]thiophene-2′-carboxamide [Compound 7]”, the EC50 in assay [1] and in assay [2] was above 100 µM throughout.
With `O=C(N[C@H]1CCC[C@H]1C(=O)O)c1ccc([N+](=O)[O-])s1` (racemic) [Compound 23, ±syn 2-(5′-nitrothiophene-2′-amido)cyclopentane-1-carboxylic acid], the values for the EC50 in assay [1] and in assay [2] were above 100 µM and 52 µM, respectively.
Taken in the same sequence, the figures for `O=C(NC1CCCC1C(=O)O)c1ccc([N+](=O)[O-])s1` (racemic) [Compound 24, ±anti 2-(5′-nitrothiophene-2′-amido)cyclopentane-1-carboxylic acid] were above 100 µM and above 100 µM.
For the molecule `CNC(=O)c1ccsc1NC(=O)c1cccs1` [Compound 6, N-methyl-2-(thiophene-2′-amido)thiophene-3-carboxamide], the EC50 in assay [1] (Leishmania major, 48 h) was above 100 µM; in assay [2] (Leishmania amazonensis, 48 h), above 100 µM.
As to `CNC(=O)c1ccsc1NC(=O)c1cnc(Cl)s1` [Compound 9, N-[3-(methylcarbamoyl)thiophen-2-yl]-2′-chloro-1′,3′-thiazole-5′-carboxamide], the EC50 in assay [1] (Leishmania major, 48 h) was determined as 33 ± 10 µM.
As to `CNC(=O)c1ccsc1NC(=O)c1ccccc1` [Compound 10, 2-benzamido-N-methylthiophene-3-carboxamide], the EC50 turned out to be 75 ± 5 µM in assay [1] (Leishmania major, 48 h) and 55 ± 5 µM in assay [2] (Leishmania amazonensis, 48 h).
Taken in the same sequence, the figures for `CNC(=O)c1ccsc1NC(=O)c1nccs1` [Compound 11, N-[3-(methylcarbamoyl)thiophen-2-yl]-1′,3′-thiazole-2′-carboxamide] were 78 ± 2 µM and above 100 µM.
The corresponding values for `CNC(=O)c1ccsc1NC(=O)c1cncs1` [Compound 12, N-[3-(methylcarbamoyl)thiophen-2-yl]-1′,3′-thiazole-5′-carboxamide] are 88 ± 6 µM and 53 ± 3 µM.
The corresponding values for `CNC(=O)c1ccsc1NC(=O)c1cscn1` [Compound 13, N-[3-(methylcarbamoyl)thiophen-2-yl]-1′,3′-thiazole-4′-carboxamide] are above 100 µM and 93 ± 7 µM.
`CNC(=O)c1ccsc1NC(=O)c1ccncc1` [Compound 14, N-[3-(methylcarbamoyl)thiophen-2-yl]pyridine-4′-carboxamide]: the EC50 in assay [1] (Leishmania major, 48 h) was 82 ± 1 µM; in assay [2] (Leishmania amazonensis, 48 h), 45 ± 5 µM.
For the molecule `CNC(=O)c1ccsc1NC(=O)c1cccnc1` [Compound 15, N-[3-(methylcarbamoyl)thiophen-2-yl]pyridine-3′-carboxamide], the EC50 was found to be 82 ± 7 µM in assay [1] (Leishmania major, 48 h) and 59 ± 2 µM in assay [2] (Leishmania amazonensis, 48 h).
For `CNC(=O)c1ccsc1NC(=O)c1ccc2nonc2c1` [Compound 16, N-[3-(methylcarbamoyl)thiophen-2-yl]-2,1,3-benzoxadiazole-5′-carboxamide], the EC50 in assay [1] (Leishmania major, 48 h) was above 100 µM; in assay [2] (Leishmania amazonensis, 48 h), above 100 µM.
Consider `CNC(=O)c1ccsc1NC(=O)c1cccc([N+](=O)[O-])c1` [Compound 18, N-methyl-2-(3′-nitrobenzamido)thiophene-3-carboxamide], for which the EC50 in assay [1] (Leishmania major, 48 h) was above 100 µM; in assay [2] (Leishmania amazonensis, 48 h), above 100 µM.
Regarding `CNC(=O)c1ccsc1NC(=O)c1ccc([N+](=O)[O-])cc1` [Compound 19, N-methyl 2-(4′-nitrobenzamido)thiophene-3-carboxamide], the EC50 was above 100 µM in assay [1] (Leishmania major, 48 h) and above 100 µM in assay [2] (Leishmania amazonensis, 48 h).
As to `CNC(=O)c1ccsc1NC(=O)c1ccc([N+](=O)[O-])cc1C(F)(F)F` [Compound 20, N-methyl-2-[4′-nitro-2′-(trifluoromethyl)benzamido]thiophene-3-carboxamide], the EC50 in assay [1] (Leishmania major, 48 h) is 16.6 ± 0.2 µM; in assay [2] (Leishmania amazonensis, 48 h), 38.7 µM. Besides, the “improvement in antileishmanial activity compared to 19” value in assay [1] (Table 2) is on record as above 3 fold.
With `CCOC(=O)C1CCCC1NC(=O)c1ccc([N+](=O)[O-])s1` (stereo not drawn) [Compound 21, syn-ethyl-2-(5′-nitrothiophene-2′-amido)cyclopentane-1-carboxylate], the EC50 in assay [1] worked out at 22 µM; in assay [2], 9.7 µM.
Taken in the same sequence, the figures for `CCOC(=O)C1CCCC1NC(=O)c1ccc([N+](=O)[O-])s1` (stereo not drawn) [Compound 22, anti-ethyl-2-(5′-nitrothiophene-2′-amido)cyclopentane-1-carboxylate] were 10 µM and 13 µM.
For `CCOC(=O)C1=C(NC(=O)c2ccc([N+](=O)[O-])s2)CCC1` [Compound 26, Ethyl 2-(5′-nitrothiophene-2′-amido)cyclopent-1-ene-1-carboxylate], the EC50 in assay [1] (Leishmania major, 48 h) turned out to be 0.46 µM; in assay [2] (Leishmania amazonensis, 48 h), 0.72 µM.
As for `O=C(Nc1ccccc1C(=O)O)c1ccc([N+](=O)[O-])s1` [Compound 29, 2-(5′-nitrothiophene-2′-amido)benzoic acid], in assay [1] (Leishmania major, 48 h), the EC50 was 46 µM.
Consider `COc1ccccc1NC(=O)c1ccc([N+](=O)[O-])s1` [Compound 30, N-(2-methoxyphenyl)-5′-nitrothiophene-2′-carboxamide], for which the EC50 in assay [1] amounted to 6.3 µM.
For the molecule `O=C(Nc1ccccc1C(F)(F)F)c1ccc([N+](=O)[O-])s1` [Compound 31, 5′-nitro-N-[2-(trifluoromethyl)phenyl]thiophene-2′-carboxamide], the EC50 in assay [1] worked out at 8.3 µM; in assay [2], 4.24 µM.
On to `CC(=O)c1ccccc1NC(=O)c1ccc([N+](=O)[O-])s1` [Compound 32, N-(2-acetylphenyl)-5′-nitrothiophene-2′-carboxamide], for which the EC50 in assay [1] came to 16 µM.
On the same count and under the same terms, for `COc1cccc(NC(=O)c2ccc([N+](=O)[O-])s2)c1` [Compound 35, N-(3-methoxyphenyl)-5′-nitrothiophene-2′-carboxamide] the value was 3.9 µM; for `COc1ccc(NC(=O)c2ccc([N+](=O)[O-])s2)cc1` [Compound 36, N-(4-methoxyphenyl)-5′-nitrothiophene-2′-carboxamide], 3.45 µM; for `CC(C)NC(=O)c1ccccc1NC(=O)c1ccc([N+](=O)[O-])s1` [Compound 38, 5′-nitro-N-{[(propan-2-yl)carbamoyl]-2-phenyl}thiophene-2′-carboxamide], 4 µM.
Same read-out and setting: for `CCCCCCCCCCCCCNC(=O)c1ccccc1NC(=O)c1ccc([N+](=O)[O-])s1` [Compound 39, 5′-nitro-N-[2-(tridecylcarbamoyl)phenyl]thiophene-2′-carboxamide] the value was above 100 µM.
Still for that read-out and setting: for `CNC(=O)c1c(C)cccc1NC(=O)c1ccc([N+](=O)[O-])s1` [Compound 40, N-[3-methyl-2-(methylcarbamoyl)phenyl]-5′-nitrothiophene-2′-carboxamide] the value was 8.5 µM; for `CNC(=O)c1cc(OC)ccc1NC(=O)c1ccc([N+](=O)[O-])s1` [Compound 41, N-[4-methoxy-2-(methylcarbamoyl)phenyl]-5′-nitrothiophene-2′-carboxamide], 16 µM; for `CNC(=O)c1cc(C)ccc1NC(=O)c1ccc([N+](=O)[O-])s1` [Compound 42, N-[4-methyl-2-(methylcarbamoyl)phenyl]-5′-nitrothiophene-2′-carboxamide], 2.7 µM.
For the molecule `O=c1oc(-c2ccc([N+](=O)[O-])s2)nc2ccccc12` [Compound 57, 2-(5′-nitrothiophen-2′-yl)-4H-3,1-benzoxazin-4-one], the EC50 in assay [1] (Leishmania major, 48 h) came to 38 µM.
